Drawing on ChEMBL document CHEMBL1158419, “3D-QSAR study of 8-azabicyclo[3.2.1] octane analogs antagonists of cholinergic receptor” (Bioorg Med Chem Lett, 2009), this text covers pKi for 17 molecules.

By pKi is commonly meant the negative decadic logarithm of the Ki, by convention in mol/L.

Molecules are shown by their SMILES.

This assay in a line: Antagonist activity at muscarinic receptor. The class given is functional.

As to `C[N+]1(C)C2CCC1CC(OC(=O)C(CC(=O)O[C@H]1C[C@H]3CC[C@@H](C1)[N+]3(C)C)c1ccccc1)C2` (some centres not stated), the pKi is 7.18.

`COC(=O)C(C(=O)O[C@@H]1C[C@@H]2[C@H]3O[C@H]3[C@H](C1)[N+]2(C)C)(c1ccccc1)C1CCCC1` (some centres not stated) registered a pKi of 7.28.

As for `CCCCCCOC(=O)C(C(=O)O[C@@H]1C[C@@H]2[C@H]3O[C@H]3[C@H](C1)[N+]2(C)C)c1ccccc1` (some centres not stated), the pKi came to 7.33.

The molecule `C[N+]1(C)[C@@H]2C[C@@H](OC(=O)C(C(=O)OC3CCCCC3)c3ccccc3)C[C@H]1[C@@H]1O[C@@H]12` (some centres not stated) showed a pKi of 8.01.

In turn, `CN1[C@@H]2C[C@@H](OC(=O)C(c3ccccc3)C3CCCC3)C[C@H]1[C@@H]1O[C@@H]12` (some centres not stated) gave a pKi of 7.14.

With `CCOC(=O)C(C(=O)O[C@@H]1C[C@@H]2[C@H]3O[C@H]3[C@H](C1)[N+]2(C)C)(c1ccccc1)C1CCCC1` (some centres not stated), the pKi is on record as 7.98.

Consider `C[N+]1(C)[C@@H]2CC[C@H]1C[C@@H](OC(=O)CCC(C(=O)O[C@@H]1C[C@H]3CC[C@@H](C1)[N+]3(C)C)c1ccccc1)C2` (some centres not stated), for which the pKi amounted to 6.5.

The molecule `C[S+]([O-])COC(=O)C(O[C@@H]1CC2CC[C@H](C1)[N+]2(C)C)c1ccccc1` (single isomer, unassigned) came in with a pKi of 7.25.

For the molecule `C=CCN1C2CC[C@@H]1C[C@H](OC(c1ccc(F)cc1)c1ccc(F)cc1)C2` (single isomer, unassigned), the pKi came to 2.25.

For `CCCCN1C2CC[C@@H]1C[C@H](OC(c1ccc(F)cc1)c1ccc(F)cc1)C2` (single isomer, unassigned), the negative-log Ki (pKi) is listed as 2.6.

Molecule `Fc1ccc(C(O[C@@H]2CC3CC[C@H](C2)N3Cc2ccccc2)c2ccc(F)cc2)cc1` (single isomer, unassigned) had a pKi of 3.01.

Regarding `CN1C2CC[C@@H]1C[C@H](OC(c1ccc(F)cc1)c1ccc(F)cc1)C2` (single isomer, unassigned), the pKi was found to be 1.06.

`CCOC(=O)C(C(=O)O[C@@H]1CC2[C@H]3O[C@H]3[C@H](C1)[N+]2(C)C)c1ccccc1` (single isomer, unassigned) showed a pKi of 8.32.

On to `CN1[C@@H]2CC[C@H]1C[C@@H](OC(=O)C(CO)c1ccccc1)C2` (some centres not stated) [ATROPINE], for which the pKi was 9.34.

In turn, `CN1[C@@H]2CC[C@H]1C[C@@H](OC(c1ccccc1)c1ccccc1)C2` [BENZTROPINE] came in with a pKi of 0.33.

For the molecule `COC(=O)[C@H]1[C@@H](OC(=O)c2ccccc2)C[C@@H]2CC[C@H]1N2C` [COCAINE], the pKi is listed as 4.79.

Molecule `CN1[C@@H]2C[C@@H](OC(=O)[C@H](CO)c3ccccc3)C[C@H]1[C@@H]1O[C@@H]12` [SCOPOLAMINE] came in with a pKi of 8.95.
